Test results as given in patent publication US20220175637A1, “COMPOSITION COTAINING ULTRAVIOLET WAVELENGTH-CONVERTING SUBSTANCE AND HYDROPHOBIZED SILICA AND/OR HYDROPHOBIZED STARCH” (Shiseido Company, Ltd., priority 2019, published 2022).

Columns and labels:
Human dermal fibroblasts [1] = experiment: Cell activity (AlamarBlue) of cells irradiated with UV through a solution of the UV wavelength conversion substance; type: cell-based; details: UV 0 to 100 mJ/cm^2, FIG. 3
Experimental: The UV wavelength conversion substances (3) and (4) were dispersed in alcohol to prepare 5% and 10% dispersions.
(§1) 1. Human dermal fibroblasts and human skin keratinocytes purchased from Kurabo Industries Ltd. were used. A cell suspension (1 mL) stored in liquid nitrogen was thawed in a water bath (37° C.) to an extent that small ice pellets remained, and then diluted with 9 mL of warm medium. 2. The diluted suspension was mixed gently and then transferred to a T75 flask and incubated overnight at 37° C. 3. The next day, the medium was replaced with 10 mL of fresh medium. 4. The medium was replaced periodically (once every 2 days for fibroblasts and once every 2 to 3 days for keratinocytes) and cell proliferation was continued. Meanwhile, the cells were observed using a microscope, and it was confirmed that the cells grew in the correct form. 5. After the cells reached about 80% confluence, the cells were passaged. The cells were passaged by washing the cells once with 10 mL of warm PBS, adding 5 mL of warm trypsin to a T75 flask, covering the bottom of the flask with a trypsin solution, followed by aspirating at room temperature for 1 minute. 6. The flask was allowed to stand in an oven at 37° C. for (maximum) 2 minutes for fibroblasts and (maximum) 7 minutes for keratinocytes. The cells were observed using a microscope and confirmed to be small and oval. 7. […]

Human dermal fibroblasts [2] = experiment: Restoration of cell activity decreased by UV irradiation (AlamarBlue); type: cell-based; details: FIG. 5
Experimental: as §1, with “7. Thereafter, the side of the T75 flask was lightly tapped to release the cells.” for “7.”

Substance: C-phycocyanin
- cell activity at UV irradiation (relative fluorescence intensity) (Human dermal fibroblasts [1]; 0.4% C-phycocyanin solution): the decrease in cell activity was suppressed
- cell activity at UV irradiation (relative fluorescence intensity) (Human dermal fibroblasts [1]; 2% C-phycocyanin solution, compared to no UV irradiation): the cell activity was even increased
- cell activity recovery effect, comparison of concentrations (Human dermal fibroblasts [2]; 0.4% versus 2% solution): equivalent at concentrations of 0.4% and 2%
- cell activity of cells having activity temporarily reduced (relative fluorescence intensity) (Human dermal fibroblasts [2]; pre-irradiation 400 mJ/cm^2 without substance, then UV 0 to 200 mJ/cm^2 through 0.4% or 2% solution): cell activity was recovered
